According to paper PMC6429214, “Design, Synthesis and Biological Evaluation of Isoxazole-Based CK1 Inhibitors Modified with Chiral Pyrrolidine Scaffolds” (Molecules, 2019):

How the values were obtained:
Experiment in all cases: 33PanQinase panel
Format in all cases: biochemical
ACK1 = target: T1, ACK1 (Homo sapiens, UniProt Q07912); details: ACK1, 1 µM; read-out: Residual Activity (%)
T1 construct: purchased ProQinase
Outline: (§1)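 Measured value: residual activity (%) vs DMSO. Conditions: 1 µM compound, 1% DMSO, radiometric 33PanQinase format, 320 wild-type kinase panel.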

ACV-R2A = target: T2, ACV-R2A (Homo sapiens, UniProt P27037); details: read-out: Residual Activity (%)
T2 construct: purchased ProQinase
Outline: as §1

AKT1 aa106-480 = target: T3, AKT1 aa106-480 (Homo sapiens, UniProt P31749); details: AKT1 aa106-480, 1 µM; read-out: Residual Activity (%)
T3 construct: purchased ProQinase
Outline: as §1

AKT2 aa107-481 = target: T4, AKT2 aa107-481 (Homo sapiens, UniProt P31751); details: AKT2 aa107-481, 1 µM; read-out: Residual Activity (%)
T4 construct: purchased ProQinase
Outline: as §1

ALK (GST-HIS-tag) = target: T5, ALK (GST-HIS-tag) (Homo sapiens, UniProt Q9UM73); details: read-out: Residual Activity (%)
T5 construct: purchased ProQinase
Outline: as §1

CAMKK2 = target: T6, CAMKK2 (Homo sapiens, UniProt Q96RR4); details: CAMKK2, 1 µM; read-out: Residual Activity (%)
T6 construct: purchased ProQinase
T6 sequence (Q96RR4 whole entry): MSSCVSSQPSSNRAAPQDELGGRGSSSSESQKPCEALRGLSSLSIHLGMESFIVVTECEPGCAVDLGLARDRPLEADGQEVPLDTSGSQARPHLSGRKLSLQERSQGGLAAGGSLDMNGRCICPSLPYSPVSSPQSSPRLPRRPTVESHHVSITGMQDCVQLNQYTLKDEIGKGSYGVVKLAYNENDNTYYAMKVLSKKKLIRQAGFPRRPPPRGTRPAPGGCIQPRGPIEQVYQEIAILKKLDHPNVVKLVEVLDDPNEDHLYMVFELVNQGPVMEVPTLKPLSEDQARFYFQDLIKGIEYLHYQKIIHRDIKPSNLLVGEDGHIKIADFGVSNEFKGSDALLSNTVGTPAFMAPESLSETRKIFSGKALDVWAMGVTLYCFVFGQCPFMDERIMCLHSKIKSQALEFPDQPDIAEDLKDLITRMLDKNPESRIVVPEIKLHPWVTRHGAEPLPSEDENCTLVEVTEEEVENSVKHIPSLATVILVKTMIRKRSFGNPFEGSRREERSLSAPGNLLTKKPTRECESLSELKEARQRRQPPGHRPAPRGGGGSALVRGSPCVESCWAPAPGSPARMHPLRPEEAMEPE
Outline: as §1

CDC7/DBF4 = target: T7, CDC7/DBF4 (Homo sapiens, UniProt O00311); details: CDC7/DBF4, 1 µM; read-out: Residual Activity (%)
T7 construct: purchased ProQinase
T7 sequence (O00311 whole entry): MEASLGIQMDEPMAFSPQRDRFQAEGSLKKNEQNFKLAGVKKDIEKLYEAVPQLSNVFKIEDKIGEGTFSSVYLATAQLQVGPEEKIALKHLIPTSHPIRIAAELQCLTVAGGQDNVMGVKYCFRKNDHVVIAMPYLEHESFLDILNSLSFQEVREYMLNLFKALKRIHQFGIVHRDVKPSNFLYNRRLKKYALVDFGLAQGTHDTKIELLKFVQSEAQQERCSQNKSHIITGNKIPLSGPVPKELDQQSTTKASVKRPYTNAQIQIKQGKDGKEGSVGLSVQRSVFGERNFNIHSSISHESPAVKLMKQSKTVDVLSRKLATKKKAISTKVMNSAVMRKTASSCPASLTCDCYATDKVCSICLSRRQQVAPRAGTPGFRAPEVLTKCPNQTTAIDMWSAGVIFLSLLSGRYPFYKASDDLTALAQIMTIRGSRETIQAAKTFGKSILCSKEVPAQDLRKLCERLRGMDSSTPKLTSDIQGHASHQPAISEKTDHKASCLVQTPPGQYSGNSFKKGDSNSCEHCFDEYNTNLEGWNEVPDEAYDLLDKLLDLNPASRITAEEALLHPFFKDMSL
T7 sequence (Q9UBU7 whole entry partner): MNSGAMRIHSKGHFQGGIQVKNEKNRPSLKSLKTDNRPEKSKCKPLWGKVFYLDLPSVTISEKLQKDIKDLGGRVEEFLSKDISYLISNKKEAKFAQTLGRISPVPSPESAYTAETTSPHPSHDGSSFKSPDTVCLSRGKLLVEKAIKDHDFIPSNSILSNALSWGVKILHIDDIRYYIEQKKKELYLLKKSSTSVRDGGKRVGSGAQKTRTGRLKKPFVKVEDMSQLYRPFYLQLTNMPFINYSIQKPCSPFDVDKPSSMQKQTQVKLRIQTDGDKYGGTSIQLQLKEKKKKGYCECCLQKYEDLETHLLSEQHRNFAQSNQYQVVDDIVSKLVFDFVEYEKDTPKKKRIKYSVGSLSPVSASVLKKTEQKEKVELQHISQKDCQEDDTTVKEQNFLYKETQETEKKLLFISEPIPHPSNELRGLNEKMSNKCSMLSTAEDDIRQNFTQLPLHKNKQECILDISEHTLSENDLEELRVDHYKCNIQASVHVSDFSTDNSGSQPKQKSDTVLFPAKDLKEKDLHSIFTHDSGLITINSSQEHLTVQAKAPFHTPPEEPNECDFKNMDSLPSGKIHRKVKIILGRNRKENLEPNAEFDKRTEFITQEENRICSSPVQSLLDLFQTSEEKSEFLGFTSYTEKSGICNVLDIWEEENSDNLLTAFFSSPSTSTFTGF
Outline: as §1

CDK1/CycE1 = target: T8, CDK1/CycE1 (Homo sapiens, UniProt P06493); details: CDK1/CycE1, 1 µM; read-out: Residual Activity (%)
T8 construct: purchased ProQinase
Outline: as §1

CDK5/p35NCK = target: T9, CDK5/p35NCK (Homo sapiens, UniProt Q00535); details: read-out: Residual Activity (%)
T9 construct: purchased ProQinase
T9 sequence (Q00535 whole entry): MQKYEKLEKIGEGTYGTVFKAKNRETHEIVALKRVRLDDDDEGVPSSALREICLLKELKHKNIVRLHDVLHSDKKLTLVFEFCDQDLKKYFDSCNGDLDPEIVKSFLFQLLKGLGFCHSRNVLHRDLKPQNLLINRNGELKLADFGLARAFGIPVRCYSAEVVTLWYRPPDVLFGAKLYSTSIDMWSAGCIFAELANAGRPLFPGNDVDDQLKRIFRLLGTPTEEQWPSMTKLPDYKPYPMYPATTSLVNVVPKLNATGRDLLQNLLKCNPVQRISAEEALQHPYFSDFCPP
T9 sequence (Q15078 whole entry partner): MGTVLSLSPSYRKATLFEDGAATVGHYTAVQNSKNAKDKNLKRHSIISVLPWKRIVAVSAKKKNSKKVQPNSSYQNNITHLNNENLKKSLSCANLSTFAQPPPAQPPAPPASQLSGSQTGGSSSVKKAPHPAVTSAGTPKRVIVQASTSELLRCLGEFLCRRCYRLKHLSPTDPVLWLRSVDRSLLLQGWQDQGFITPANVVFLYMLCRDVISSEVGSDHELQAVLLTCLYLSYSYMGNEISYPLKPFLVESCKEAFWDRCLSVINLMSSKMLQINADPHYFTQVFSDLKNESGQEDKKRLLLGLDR
Outline: as §1

CHK1 = target: T10, CHK1 (Homo sapiens, UniProt O14757); details: CHK1, 1 µM; read-out: Residual Activity (%)
T10 construct: purchased ProQinase
T10 sequence (O14757 whole entry): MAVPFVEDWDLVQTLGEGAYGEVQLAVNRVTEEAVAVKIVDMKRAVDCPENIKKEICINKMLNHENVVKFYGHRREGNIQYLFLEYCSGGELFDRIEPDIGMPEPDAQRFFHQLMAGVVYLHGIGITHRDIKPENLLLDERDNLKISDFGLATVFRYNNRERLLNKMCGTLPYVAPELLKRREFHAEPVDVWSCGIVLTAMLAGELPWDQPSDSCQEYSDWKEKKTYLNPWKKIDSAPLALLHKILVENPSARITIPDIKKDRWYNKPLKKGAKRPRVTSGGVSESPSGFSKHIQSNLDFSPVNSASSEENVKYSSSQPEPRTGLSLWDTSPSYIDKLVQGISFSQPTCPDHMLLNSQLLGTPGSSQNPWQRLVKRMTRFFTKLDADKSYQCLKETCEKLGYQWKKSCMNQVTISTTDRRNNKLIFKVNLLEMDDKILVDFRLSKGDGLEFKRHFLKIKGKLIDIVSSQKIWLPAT
Outline: as §1

DDR2 = target: T11, DDR2 (Homo sapiens, UniProt Q16832); details: DDR2, 1 µM; read-out: Residual Activity (%)
T11 construct: purchased ProQinase
Outline: as §1

DYRK1B = target: T12, DYRK1B (Homo sapiens, UniProt Q9Y463); details: read-out: Residual Activity (%)
T12 construct: purchased ProQinase
Outline: as §1

EPHA3 = target: T13, EPHA3 (Homo sapiens, UniProt P29320); details: EPHA3, 1 µM; read-out: Residual Activity (%)
T13 construct: purchased ProQinase
Outline: as §1

EPHB4 = target: T14, EPHB4 (Homo sapiens, UniProt P54760); details: EPHB4, 1 µM; read-out: Residual Activity (%)
T14 construct: purchased ProQinase
Outline: as §1

HIPK1 = target: T15, HIPK1 (Homo sapiens, UniProt Q86Z02); details: HIPK1, 1 µM; read-out: Residual Activity (%)
T15 construct: purchased ProQinase
Outline: as §1

MAP3K7/MAP3K7IP1 = target: T16, MAP3K7/MAP3K7IP1 (Homo sapiens, UniProt O43318); details: MAP3K7/MAP3K7IP1, 1 µM; read-out: Residual Activity (%)
T16 construct: purchased ProQinase
T16 sequence (O43318 1-303 limits assumed): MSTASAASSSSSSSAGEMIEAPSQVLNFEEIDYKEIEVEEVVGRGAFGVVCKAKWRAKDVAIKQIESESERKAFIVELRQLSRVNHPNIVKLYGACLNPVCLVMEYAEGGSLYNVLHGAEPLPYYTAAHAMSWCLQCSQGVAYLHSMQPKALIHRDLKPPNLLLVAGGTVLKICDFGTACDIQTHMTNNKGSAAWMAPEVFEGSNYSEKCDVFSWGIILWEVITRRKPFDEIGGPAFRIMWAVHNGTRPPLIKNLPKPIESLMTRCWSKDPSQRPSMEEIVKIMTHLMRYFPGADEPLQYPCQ
T16 sequence (Q15750 437-504 partner limits assumed): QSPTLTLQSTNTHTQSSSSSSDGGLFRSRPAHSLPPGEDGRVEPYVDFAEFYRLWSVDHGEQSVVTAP
Outline: as §1

MAPKAPK3 = target: T17, MAPKAPK3 (Homo sapiens, UniProt Q16644); details: MAPKAPK3, 1 µM; read-out: Residual Activity (%)
T17 construct: purchased ProQinase
Outline: as §1

PKA = target: T18, PKA (Homo sapiens, UniProt P17612); details: read-out: Residual Activity (%)
T18 construct: purchased ProQinase
Outline: as §1

PKC-gamma = target: T19, PKC-gamma (Homo sapiens, UniProt P05129); details: read-out: Residual Activity (%)
T19 construct: purchased ProQinase
Outline: as §1

PRKD2 = target: T20, PRKD2 (Homo sapiens, UniProt Q9BZL6); details: PRKD2, 1 µM; read-out: Residual Activity (%)
T20 construct: purchased ProQinase
Outline: as §1

ROS = target: T21, ROS (Homo sapiens, UniProt P08922); details: read-out: Residual Activity (%)
T21 construct: purchased ProQinase
Outline: as §1

RPS6KA1 = target: T22, RPS6KA1 (Homo sapiens, UniProt Q15418); details: RPS6KA1, 1 µM; read-out: Residual Activity (%)
T22 construct: purchased ProQinase
Outline: as §1

RPS6KA3 = target: T23, RPS6KA3 (Homo sapiens, UniProt P51812); details: RPS6KA3, 1 µM; read-out: Residual Activity (%)
T23 construct: purchased ProQinase
Outline: as §1

SGK1 = target: T24, SGK1 (Homo sapiens, UniProt O00141); details: SGK1, 1 µM; read-out: Residual Activity (%)
T24 construct: purchased ProQinase
Outline: as §1

SIK3 = target: T25, SIK3 (Homo sapiens, UniProt Q9Y2K2); details: SIK3, 1 µM; read-out: Residual Activity (%)
T25 construct: purchased ProQinase
Outline: as §1

STK17A = target: T26, STK17A (Homo sapiens, UniProt Q9UEE5); details: read-out: Residual Activity (%)
T26 construct: purchased ProQinase
Outline: as §1

STK25 = target: T27, STK25 (Homo sapiens, UniProt O00506); details: STK25, 1 µM; read-out: Residual Activity (%)
T27 construct: purchased ProQinase
T27 sequence (O00506 whole entry): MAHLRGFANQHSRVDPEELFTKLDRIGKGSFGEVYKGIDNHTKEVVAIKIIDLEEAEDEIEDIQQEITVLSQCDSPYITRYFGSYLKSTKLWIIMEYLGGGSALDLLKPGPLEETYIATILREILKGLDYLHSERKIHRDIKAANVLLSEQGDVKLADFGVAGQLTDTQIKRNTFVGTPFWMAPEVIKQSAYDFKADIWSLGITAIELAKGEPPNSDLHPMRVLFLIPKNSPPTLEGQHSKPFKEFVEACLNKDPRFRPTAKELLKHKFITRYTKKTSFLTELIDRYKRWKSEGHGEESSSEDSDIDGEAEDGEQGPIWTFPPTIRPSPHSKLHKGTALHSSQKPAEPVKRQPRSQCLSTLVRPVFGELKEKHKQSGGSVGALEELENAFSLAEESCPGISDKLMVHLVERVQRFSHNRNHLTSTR
Outline: as §1

TIE2 = target: T28, TIE2 (Homo sapiens, UniProt Q02763); details: TIE2, 1 µM; read-out: Residual Activity (%)
T28 construct: purchased ProQinase
Outline: as §1

T1 sequence (Q07912 whole entry): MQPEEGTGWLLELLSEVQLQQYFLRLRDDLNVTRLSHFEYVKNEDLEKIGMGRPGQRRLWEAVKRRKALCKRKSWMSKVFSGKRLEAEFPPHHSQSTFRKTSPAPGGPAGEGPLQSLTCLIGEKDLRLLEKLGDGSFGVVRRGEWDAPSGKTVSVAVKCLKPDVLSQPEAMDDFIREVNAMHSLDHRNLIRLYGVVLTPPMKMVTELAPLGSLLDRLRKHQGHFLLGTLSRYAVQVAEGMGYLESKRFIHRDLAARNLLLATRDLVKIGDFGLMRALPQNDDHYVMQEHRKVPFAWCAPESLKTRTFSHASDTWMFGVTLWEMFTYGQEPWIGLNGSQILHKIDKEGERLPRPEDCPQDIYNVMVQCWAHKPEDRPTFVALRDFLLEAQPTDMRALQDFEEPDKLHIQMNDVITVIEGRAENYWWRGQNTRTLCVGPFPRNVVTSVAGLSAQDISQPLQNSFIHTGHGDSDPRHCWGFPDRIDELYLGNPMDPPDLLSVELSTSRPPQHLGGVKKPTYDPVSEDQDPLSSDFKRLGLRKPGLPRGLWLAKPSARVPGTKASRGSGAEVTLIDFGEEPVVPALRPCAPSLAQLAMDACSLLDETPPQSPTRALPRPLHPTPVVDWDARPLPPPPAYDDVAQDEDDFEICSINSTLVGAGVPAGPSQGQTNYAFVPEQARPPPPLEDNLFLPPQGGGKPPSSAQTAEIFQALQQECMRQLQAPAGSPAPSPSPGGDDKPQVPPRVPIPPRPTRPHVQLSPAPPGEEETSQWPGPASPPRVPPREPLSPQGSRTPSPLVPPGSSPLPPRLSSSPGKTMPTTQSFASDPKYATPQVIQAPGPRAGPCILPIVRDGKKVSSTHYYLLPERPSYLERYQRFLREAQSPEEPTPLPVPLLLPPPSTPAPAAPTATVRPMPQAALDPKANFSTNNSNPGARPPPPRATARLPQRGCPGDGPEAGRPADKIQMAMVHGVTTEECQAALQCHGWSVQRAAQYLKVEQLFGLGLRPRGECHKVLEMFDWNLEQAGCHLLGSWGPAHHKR

Structure (SMILES): COc1ccc(-c2cc(C(=O)Nc3cc(-c4c(-c5ccc(F)cc5)noc4C(C)C)ccn3)n(CC3NCC(O)C3O)c2)cc1 (stereo not shown) [29d]
- remaining activity at 1 µM (ACK1): 96%
- remaining activity at 1 µM (ACV-R2A): 125%
- remaining activity at 1 µM (AKT1 aa106-480): 84%
- remaining activity at 1 µM (AKT2 aa107-481): 107%
- remaining activity at 1 µM (ALK (GST-HIS-tag)): 105%
- remaining activity at 1 µM (CAMKK2): 97%
- remaining activity at 1 µM (CDC7/DBF4): 94%
- remaining activity at 1 µM (CDK1/CycE1): 100%
- remaining activity at 1 µM (CDK5/p35NCK): 100%
- remaining activity at 1 µM (CHK1): 97%
- remaining activity at 1 µM (DDR2): 95%
- remaining activity at 1 µM (DYRK1B): 104%
- remaining activity at 1 µM (EPHA3): 118%
- remaining activity at 1 µM (EPHB4): 118%
- remaining activity at 1 µM (HIPK1): 98%
- remaining activity at 1 µM (MAP3K7/MAP3K7IP1): 95%
- remaining activity at 1 µM (MAPKAPK3): 91%
- remaining activity at 1 µM (PKA): 96%
- remaining activity at 1 µM (PKC-gamma): 112%
- remaining activity at 1 µM (PRKD2): 110%
- remaining activity at 1 µM (ROS): 88%
- remaining activity at 1 µM (RPS6KA1): 84%
- remaining activity at 1 µM (RPS6KA3): 107%
- remaining activity at 1 µM (SGK1): 102%
- remaining activity at 1 µM (SIK3): 104%
- remaining activity at 1 µM (STK17A): 102%
- remaining activity at 1 µM (STK25): 98%
- remaining activity at 1 µM (TIE2): 110%
